From PubChem BioAssay AID248 (DTP/NCI, 2004)
Inconclusive results and toxic doses are left out. Rule as the data show it: active = T/C of 150% or more; inactive = T/C below 125%.

System: L1210 leukemia ip in BDF1 mice, survival T/C
Experiment: NCI In Vivo Anticancer Drug Screen. Data for tumor model L1210 Leukemia (intraperitoneal) in B6D2F1 (BDF1) mice
Conditions: endpoint: mean survival time, higher = longer survival
Method in brief: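 Antitumor effect is assessed in tumor-bearing animals. Survival in the compound arm is compared with a vehicle-dosed control arm and expressed as their quotient.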

[1] = dose: 100.0 mg/kg/injection, schedule: Q01DX009 (ip), vehicle: Klucel (hydroxypropylcellulose) (HPC)
[2] = dose: 200.0 mg/kg/injection, schedule: Q01DX009 (ip), vehicle: Klucel (hydroxypropylcellulose) (HPC)
[3] = dose: 400.0 mg/kg/injection, schedule: Q01DX009 (ip), vehicle: Klucel (hydroxypropylcellulose) (HPC)
[4] = dose: 100.0 mg/kg/injection, schedule: Q01DX009 (ip), vehicle: saline with Tween-80
[5] = dose: 100.0 mg/kg/injection, schedule: Q04DX002 (ip), vehicle: Klucel (hydroxypropylcellulose) (HPC)
[6] = dose: 200.0 mg/kg/injection, schedule: Q04DX002 (ip), vehicle: Klucel (hydroxypropylcellulose) (HPC)
[7] = dose: 100.0 mg/kg/injection, schedule: Q01DX009 (ip), vehicle: saline
[8] = dose: 100.0 mg/kg/injection, schedule: Q04DX003 (ip), vehicle: saline
[9] = dose: 200.0 mg/kg/injection, schedule: Q01DX009 (ip), vehicle: saline
[10] = dose: 200.0 mg/kg/injection, schedule: Q04DX003 (ip), vehicle: saline
[11] = dose: 400.0 mg/kg/injection, schedule: Q01DX009 (ip), vehicle: saline
[12] = dose: 400.0 mg/kg/injection, schedule: Q04DX003 (ip), vehicle: saline
[13] = dose: 100.0 mg/kg/injection, schedule: Q04DX003 (ip), vehicle: Klucel (hydroxypropylcellulose) (HPC)
[14] = dose: 200.0 mg/kg/injection, schedule: Q04DX003 (ip), vehicle: Klucel (hydroxypropylcellulose) (HPC)

Measured: T/C

O=C(Nc1ccc(F)cc1)OCCOc1ccc([N+](=O)[O-])cc1
inactive: [1] 96 % of control | [2] 107 % of control | [3] 93 % of control

c1ccc(CN2CCCCC2)nc1
inactive: dose: 10.0 mg/kg/injection, schedule: Q01DX009 (ip), vehicle: Klucel (hydroxypropylcellulose) (HPC) 103 % of control | dose: 10.0 mg/kg/injection, schedule: Q04DX003 (ip), vehicle: Klucel (hydroxypropylcellulose) (HPC) 92 % of control | dose: 20.0 mg/kg/injection, schedule: Q01DX009 (ip), vehicle: Klucel (hydroxypropylcellulose) (HPC) 91 % of control | dose: 20.0 mg/kg/injection, schedule: Q04DX003 (ip), vehicle: Klucel (hydroxypropylcellulose) (HPC) 97 % of control | dose: 40.0 mg/kg/injection, schedule: Q04DX003 (ip), vehicle: Klucel (hydroxypropylcellulose) (HPC) 97 % of control

COC(OC)c1[nH]c(=O)[nH]c(=O)c1F.[Hg]
inactive: dose: 3.0 mg/kg/injection, schedule: Q01DX009 (ip), vehicle: saline 97 % of control | dose: 6.0 mg/kg/injection, schedule: Q01DX009 (ip), vehicle: saline 97 % of control | dose: 12.0 mg/kg/injection, schedule: Q04DX003 (ip), vehicle: saline 98 % of control

COc1ccc(OC)c(/C=C/c2cccn[n+]2C)c1
inactive: dose: 50.0 mg/kg/injection, schedule: Q01DX009 (ip), vehicle: saline with Tween-80 101 % of control | [4] 114 % of control

CCOC(=O)C1Nc2ccc3ccccc3c2NC1=O (stereo not given)
inactive: dose: 50.0 mg/kg/injection, schedule: Q04DX002 (ip), vehicle: Klucel (hydroxypropylcellulose) (HPC) 93 % of control | [5] 97 % of control | [6] 90 % of control

CC(Br)C(=O)NCC(=O)NCC(=O)O (stereo not given)
inactive: [7] 100 % of control | [8] 101 % of control | [9] 89 % of control | [10] 101 % of control | [11] 90 % of control | [12] 97 % of control

CCCCCCCCCCCCOP(OCCCCCCCCCCCC)OCCCCCCCCCCCC
inactive: [7] 90 % of control | [9] 88 % of control | [11] 93 % of control

N#Cc1cccc(N)c1
inactive: dose: 100.0 mg/kg/injection, schedule: Q01DX001 (ip), vehicle: saline 109 % of control | [8] 100 % of control | [10] 94 % of control | dose: 400.0 mg/kg/injection, schedule: Q01DX001 (ip), vehicle: saline 88 % of control | [12] 93 % of control

CCOC(=O)c1c[nH]c2cc(OCC3CC3)c(OCC3CC3)cc2c1=O
inactive: [4] 92 % of control

CCCCCCCCCCCCNC(=O)Nc1cc(C)ccc1C
inactive: [1] 97 % of control | [13] 94 % of control | [2] 86 % of control | [14] 95 % of control | [3] 86 % of control | dose: 400.0 mg/kg/injection, schedule: Q04DX003 (ip), vehicle: Klucel (hydroxypropylcellulose) (HPC) 97 % of control

NC(=O)N/N=C(\CBr)c1ccc(Br)cc1
inactive: [7] 93 % of control

O=S1C=Cc2ccccc21 (stereo not given)
inactive: [5] 101 % of control | [6] 116 % of control | dose: 400.0 mg/kg/injection, schedule: Q04DX002 (ip), vehicle: Klucel (hydroxypropylcellulose) (HPC) 105 % of control

CCOC(=O)CCCN(C(=O)c1ccccc1)c1scc(-c2ccccc2)c1C(=O)OCC
inactive: dose: 50.0 mg/kg/injection, schedule: Q04DX003 (ip), vehicle: saline with Tween-80 92 % of control | dose: 100.0 mg/kg/injection, schedule: Q04DX003 (ip), vehicle: saline with Tween-80 95 % of control | dose: 200.0 mg/kg/injection, schedule: Q04DX003 (ip), vehicle: saline with Tween-80 94 % of control | dose: 400.0 mg/kg/injection, schedule: Q04DX003 (ip), vehicle: saline with Tween-80 103 % of control

COC1CCC2=C(C1)C(=O)CC1c3ccccc3CCN21 (stereo not given) (tested in a mixture with another compound)
inactive: dose: 6.25 mg/kg/injection, schedule: Q04DX003 (ip), vehicle: saline with Tween-80 97 % of control | dose: 12.5 mg/kg/injection, schedule: Q04DX003 (ip), vehicle: saline with Tween-80 107 % of control | dose: 25.0 mg/kg/injection, schedule: Q04DX003 (ip), vehicle: saline with Tween-80 102 % of control

CCCCCCCCCCCC(=O)NC(=S)Nc1ccccc1F
inactive: [13] 95 % of control | [14] 87 % of control
